This is an account of results in PubChem BioAssay AID1996.

Structures are written as SMILES. Values after ≈ are worked out from the molar mass of the structure shown.

For the series the following is noted: buffer; pH 7.4; 200.0 µM.
As a reminder, the kinetic solubility is the concentration staying in solution when a stock, usually in DMSO, is diluted into the medium. `CCNc1nc(NC(C)(C)C)nc(SC)n1` had a solubility (kinetic) of 35.9 µg/mL (≈ 149 µM).
For `O=C(COC(=O)c1cccc(Cl)c1)Nc1cccc(S(=O)(=O)NC2=NCCC2)c1` the value was 63.3 µg/mL (≈ 145 µM); for `C/C(=N\O)C(C)(C)Nc1ccccc1F`, 28.1 µg/mL (≈ 134 µM).
For `COc1ccc(NC(=O)c2ccc(S(=O)(=O)N3CCCCC3)cc2)cc1OC`, the solubility (kinetic) turned out to be 5.5 µg/mL (≈ 13.6 µM).
For the compound `COc1ccc(C(=O)COC(=O)c2ccc(Cl)nc2)cc1OC`, the solubility (kinetic) turned out to be 10.3 µg/mL (≈ 30.7 µM).
In turn, `O=C(Nc1ccccn1)c1ccc(-c2ccccc2)cc1` returned a solubility (kinetic) of 0.9 µg/mL (≈ 3.28 µM).
`O=S(=O)(c1c(Cl)cc(Br)cc1Cl)N1CCN(C(=S)NC2CC2)CC1`: the kinetic solubility came to 5.3 µg/mL (≈ 11.2 µM).
For `O=c1[nH]c(SCCN2CCOCC2)nc(O)c1-c1ccccc1` the value was 44.2 µg/mL (≈ 133 µM); for `COc1ccc(S(=O)(=O)N2CCC(N3CCCC3)CC2)cc1`, 46.7 µg/mL (≈ 144 µM).
The compound `CN(C)C(=O)O/N=C(\N)COc1ccc(C(C)(C)C)cc1` gave a kinetic solubility of 36 µg/mL (≈ 123 µM).
The compound `O=C(Nc1nccs1)c1cncc(Br)c1` gave a solubility (kinetic) of 20.4 µg/mL (≈ 71.8 µM).
On to `COc1cc(CCC(=O)N2CC(C)OC(C)C2)cc(OC)c1OC` (configuration not stated), for which the kinetic solubility was > 50.6 µg/mL.
The value for `O=C(Nc1ccc2[nH]c(=O)[nH]c2c1)c1ccc([N+](=O)[O-])o1` was 15.6 µg/mL (≈ 54.1 µM).
For `CCN(C1CCS(=O)(=O)C1)S(=O)(=O)c1ccc2ccccc2c1` (configuration not stated) the value was 15.9 µg/mL (≈ 45 µM); for `Nc1cccc(C(=O)Nc2cccc3ncccc23)c1`, > 39.5 µg/mL.
`CC(C)c1ccc(NS(=O)(=O)c2cccc3cccnc23)cc1`: the kinetic solubility was < 0.3 µg/mL.
For `CCCC(=O)OCC[N+](C)(C)C.[Cl-]` the value was > 31.5 µg/mL; for `O=C(Nc1nccs1)c1ccc2ccccc2c1`, 1.3 µg/mL (≈ 5.11 µM).
Take `CCCNC(=O)C1CC(=O)N(c2ccc(OCC)cc2)C1` (configuration not stated): the kinetic solubility was > 43.6 µg/mL.
`COc1ccc(NS(=O)(=O)c2cc(NC(=O)c3cc(F)c(F)cc3Cl)ccc2N2CCOCC2)cc1`: the kinetic solubility amounted to 3.7 µg/mL (≈ 6.88 µM).
The value for `CC(Sc1nnc(NC2CC2)s1)C(=O)Nc1ccc(S(N)(=O)=O)cc1` (configuration not stated) was > 59.9 µg/mL; that for `COc1ccc(COC(=O)CNC(=O)C2CCCCC2)cc1F` was 18.4 µg/mL (≈ 56.9 µM).
`COc1ccc(C(=O)NCCONC(=O)c2ccc(OC)cc2)cc1` returned a kinetic solubility of 50.6 µg/mL (≈ 147 µM).
`O=C1c2ccsc2SCCN1Cc1c(F)cccc1Cl` registered a kinetic solubility of 44.4 µg/mL (≈ 135 µM).
For `O=C(Nc1ccccc1C(=O)Nc1ccc(Cl)cc1)c1cccnc1` the value was 0.6 µg/mL (≈ 1.71 µM).
As for `CCOc1cccc(CNc2nnnn2C)c1`, the kinetic solubility was > 35 µg/mL.
`COc1ccc2nc(NC(=O)c3ccccc3C(=O)O)sc2c1`: the solubility (kinetic) is > 49.3 µg/mL.
In turn, `COc1ccc(NC(=O)COC(=O)Cc2c[nH]c3ccccc23)cc1Cl` yielded a solubility (kinetic) of 4.1 µg/mL (≈ 11 µM).
On to `Cn1cc(C(=O)NC2CC2)c2ccccc21`, for which the kinetic solubility came to 31.9 µg/mL (≈ 149 µM).
For `CCOC(=O)c1cnc2c(ccc3ccccc32)c1NCCN(C)C` the value was 36.3 µg/mL (≈ 108 µM); for `Cc1ccc(S(N)(=O)=O)cc1NC(=O)c1ccc2c3c(cccc13)CC2`, 3.1 µg/mL (≈ 8.46 µM); for `COC(=O)c1ccc(NC(=O)NC(=O)Oc2ccccc2)cc1`, 42.5 µg/mL (≈ 135 µM).
Consider `CC1CCC(N2CCNCC2)CC1.Cl` (configuration not stated), for which the solubility (kinetic) is > 32.8 µg/mL.
For `C#Cc1cccc(NC(=O)Cc2cccs2)c1`, the solubility (kinetic) is > 36.2 µg/mL.
For the compound `C=CCNc1nc(C(=O)OCC(=O)Nc2ccccc2C(F)(F)F)cs1`, the solubility (kinetic) came to 26.9 µg/mL (≈ 69.8 µM).
Consider `O=C(O)c1cc(=O)n(Cc2ccccc2)c(=O)[nH]1`, for which the kinetic solubility was > 36.9 µg/mL.
In turn, `Nc1cc(S(=O)(=O)N2CCCCC2)ccc1Oc1ccccc1` came in with a kinetic solubility of 10.8 µg/mL (≈ 32.5 µM).
Regarding `Cc1cc(Br)ccc1OCC(=O)NC1CCCC1`, the kinetic solubility is 31.4 µg/mL (≈ 101 µM).
On to `Cc1cccc(N2CCN(C(=S)NC3CCCCC3)CC2)c1C`, for which the solubility (kinetic) is < 0.2 µg/mL.
The compound `O=C(Cn1cc(C(F)(F)F)ccc1=O)Nc1ccccc1` yielded a kinetic solubility of 10 µg/mL (≈ 33.8 µM).
As for `CCOc1ccc(N2CC(C(=O)Nc3cc(S(=O)(=O)N4CCCCC4)ccc3C)CC2=O)cc1` (configuration not stated), the kinetic solubility came out at 1.3 µg/mL (≈ 2.68 µM).
In turn, `S=C(NCc1ccccc1)NCc1ccco1` returned a solubility (kinetic) of 28.2 µg/mL (≈ 114 µM).
The value for `COc1ccc2cc(CCNC(=O)CCc3ccccc3)c(=O)[nH]c2c1` was 4.8 µg/mL (≈ 13.7 µM); that for `COC(=O)c1ccc(NC(=S)Nc2ccc(O)cc2)cc1` was 22.3 µg/mL (≈ 73.8 µM); that for `Cc1ccc(C(=O)NC2=NCCS2)cc1Cl` was 3.1 µg/mL (≈ 12.2 µM).
Consider `Cc1ccc(NC(=S)NCCCN2CCOCC2)cc1C`, for which the kinetic solubility was > 46.1 µg/mL.
The value for `OCc1nc2ccc(Cl)cc2[nH]1` was > 27.4 µg/mL; that for `Clc1ccc2nc(-c3ccc4c(c3)OCO4)cn2c1` was < 0.3 µg/mL.
Compound `Cc1cc(SCc2cccc(Cl)c2)nc(=O)[nH]1` came in with a kinetic solubility of 39.9 µg/mL (≈ 150 µM).
As for `CC(=O)c1ccc2noc(-c3ccc(C)cc3)c2c1`, the solubility (kinetic) amounted to 26.2 µg/mL (≈ 104 µM).
For the compound `CC(=O)N(Cc1ccccc1)c1c(N)nc(N)[nH]c1=O`, the solubility (kinetic) was > 41 µg/mL.
For `Cc1cccc(N2C(=O)/C(=C/N3CCN(C(=O)c4ccco4)CC3)C(=O)NC2=S)c1`, the kinetic solubility stood at 2.6 µg/mL (≈ 6.13 µM).
